Measured values: patent US12552772B2, “2-pyrazole anilines and related analogs for inhibiting YAP/TAZ-TEAD” (KATHOLIEKE UNIVERSITEIT LEUVEN, priority 2021, dated 2026)

Columns and labels:
Format in all cases: cell-based
[1] = tested on: YAP/TAZ-TEAD transcription; assay: Reporter gene assay for measuring the inhibition of YAP/TAZ-TEAD transcription (TEAD-responsive element luciferase reporter in Hek293T cells); conditions: 24 hours incubation
In short: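 Percent inhibition, scaled between vehicle (0%) and a positive control inhibitor (100%), came from SteadyLite luciferase signal after 24 h compound exposure at 37 °C/5% CO2. Cells: Hek293T transiently carrying a TEAD-responsive luciferase reporter; EC50 derived.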

NCI-H226 = assay: Mesothelioma cell line proliferation assay (ATPlite), NCI-H226; conditions: NCI-H226 cells, 6 days, ATPlite cell viability
Protocol: (§1) Mesothelioma cell lines, NCI-H226 and NCI-H2052 (all sourced from the ATCC cell culture collection) are plated in 96-well plates (Corning® 96 Well White Polystyrene Microplate clear flat bottom, white polystyrene (TC-Treated)), at 1500 cells/well in full medium (RPMI 1640 ATCC modification with L-glutamine, HEPES, Phenol Red, Sodium Pyruvate, High glucose, Low sodium bicarbonate and 10% fetal bovine serum). Cells are incubated overnight at 37° C. in an incubator with 5% CO2. Then compounds, dissolved in DMSO, are added in dose-response. Cells are incubated with compound dilutions for another 6 days at 37° C. in an incubator with 5% CO2. Cell viability is quantitated using the ATPlite kit (Perkin-Elmer) and the luminescence is read-out using an Envision instrument (Perkin-Elmer). The amount of relative light units produced using the ATPlite kit is used to calculated percent of inhibition.
(§2) The activities of example compounds tested are depicted in the table below. The activity ranges A, B and C refer to EC50 values in the mesothelioma cell line proliferation assay as described as follows: “A”: EC50<1 μM; “B”: 1 μM s EC50≤10 μM and “C”: EC50>10 μM. NT: not tested.

NCI-H2052 = assay: Mesothelioma cell line proliferation assay (ATPlite), NCI-H2052; conditions: NCI-H2052 cells, 6 days, ATPlite cell viability
Protocol: as §1, §2

SMILES	EC50 ([1]; Homo sapiens, HEK-293T) [nM]	EC50 (NCI-H226; Homo sapiens, 144 h) [nM]	EC50 (NCI-H2052; Homo sapiens, NCI-H2052, 144 h) [nM]	EC50 [1] [nM]	EC50 (NCI-H226) [nM]	EC50 (NCI-H2052) [nM]
C=CC(=O)NCc1cnc(-c2ccc(F)cc2)cc1-n1cc(C)cn1 [compound 243, N-((6-(4-fluorophenyl)-4-(4-methyl-1H-pyrazol-1-yl)pyridin-3-yl)methyl)acrylamide]	< 1000	< 1000	1000 to 10000	–	–	–
C=CC(=O)NCc1cnc(C2CCC(F)(F)CC2)cc1-c1ccn(C(F)F)n1 [Cpd. No. 223, N-((6-(4,4-difluorocyclohexyl)-4-(1-(difluoromethyl)-1H-pyrazol-3-yl)pyridin-3-yl)methyl)acrylamide]	< 1000	< 1000	1000 to 10000	–	–	–
C=CC(=O)NCc1ccc(-c2ccc(F)cc2)cc1-c1cnn(C)c1 [compound 162, N-((4′-fluoro-3-(1-methyl-1H-pyrazol-4-yl)-[1,1′-biphenyl]-4-yl)methyl)acrylamide]	< 1000	< 1000	< 1000	–	–	–
C=CC(=O)NCc1ccc(-c2ccc(F)cc2)cc1-c1ccn(C)n1 [compound 143, N-((4′-fluoro-3-(1-methyl-1H-pyrazol-3-yl)-[1,1′-biphenyl]-4-yl)methyl)acrylamide]	< 1000	< 1000	< 1000	–	–	–
C=CC(=O)NCc1ccc(-c2ccc(F)cc2)cc1-c1cc(C)n(C)n1 [compound 176, N-((3-(1,5-dimethyl-1H-pyrazol-3-yl)-4′-fluoro-[1,1′-biphenyl]-4-yl)methyl)acrylamide]	< 1000	< 1000	< 1000	–	–	–
C=CC(=O)NCc1ccc(-c2ccc(F)cc2)cc1-c1ccn(CC2CC2)n1 [compound 153, N-((3-(1-(cyclopropylmethyl)-1H-pyrazol-3-yl)-4′-fluoro-[1,1′-biphenyl]-4-yl)methyl)acrylamide]	< 1000	< 1000	< 1000	–	–	–
C=CC(=O)N1CCC(c2ccc(-c3ccc(F)cc3)cc2-c2ccn(C(F)F)n2)C1 (stereo not drawn) [Cpd. No. 261-En1, 1-(3-(3-(1-(difluoromethyl)-1H-pyrazol-3-yl)-4′-fluoro-[1,1′-biphenyl]-4-yl)pyrrolidin-1-yl)prop-2-en-1-one]	–	–	–	< 1000	< 1000	1000 to 10000
C=CC(=O)N1CCC(c2cnc(-c3ccc(F)cc3)cc2-c2ccn(C(F)F)n2)C1 (stereo not drawn) [Cpd. No. 262, 1-(3-(4-(1-(difluoromethyl)-1H-pyrazol-3-yl)-6-(4-fluorophenyl)pyridin-3-yl)pyrrolidin-1-yl)prop-2-en-1-one]	< 1000	< 1000	–	–	–	1000 to 10000
C=CC(=O)NCc1ccc(-c2ccc(Cl)cc2)cc1-c1ccn(C)n1 [compound 157, N-((4′-chloro-3-(1-methyl-1H-pyrazol-3-yl)-[1,1′-biphenyl]-4-yl)methyl)acrylamide]	< 1000	< 1000	< 1000	–	–	–
C=CC(=O)NCc1cc(-c2ccc(F)cc2)cc(-c2cnn(C(F)F)c2)n1 [compound 227, N-((6-(1-(difluoromethyl)-1H-pyrazol-4-yl)-4-(4-fluorophenyl)pyridin-2-yl)methyl)acrylamide]	< 1000	< 1000	> 10000	–	–	–
C=CC(=O)NCc1ccc(-c2ccc(F)cc2)cc1-c1ccn(C(F)F)n1 [compound 170, N-((3-(1-(difluoromethyl)-1H-pyrazol-3-yl)-4′-fluoro-[1,1′-biphenyl]-4-yl)methyl)acrylamide]	< 1000	< 1000	< 1000	–	–	–
C=CC(=O)NCc1cc(-c2ccc(F)cc2)cc(-c2ccn(C(F)F)n2)c1 [compound 174, N-((5-(1-(difluoromethyl)-1H-pyrazol-3-yl)-4′-fluoro-[1,1′-biphenyl]-3-yl)methyl)acrylamide]	< 1000	< 1000	1000 to 10000	–	–	–
C=CC(=O)NCc1ccc(-c2ccc(C(F)(F)F)cc2)cc1-c1ccn(C)n1 [compound 140, N-((3-(1-methyl-1H-pyrazol-3-yl)-4′-(trifluoromethyl)-[1,1′-biphenyl]-4-yl)methyl)acrylamide]	< 1000	< 1000	< 1000	–	–	–
C=CC(=O)N1CCC(c2ccc(-c3ccc(F)cc3)cc2-c2ccn(C(F)F)n2)C1 (stereo not drawn) [Cpd. No. 261-En2, 1-(3-(3-(1-(difluoromethyl)-1H-pyrazol-3-yl)-4′-fluoro-[1,1′-biphenyl]-4-yl)pyrrolidin-1-yl)prop-2-en-1-one]	–	–	–	< 1000	< 1000	> 10000
C=CC(=O)NCc1cnc(-c2ccc(F)cc2)nc1-c1ccn(C)n1 [Cpd. No. 253, N-((2-(4-fluorophenyl)-4-(1-methyl-1H-pyrazol-3-yl)pyrimidin-5-yl)methyl)acrylamide]	< 1000	< 1000	< 1000	–	–	–
C=CC(=O)NCc1ccc(C2CCC(F)(F)CC2)cc1-c1ccn(C)n1 [compound 180, N-(4-(4,4-difluorocyclohexyl)-2-(1-methyl-1H-pyrazol-3-yl)benzyl)acrylamide]	< 1000	< 1000	< 1000	–	–	–
C=CC(=O)NCc1cnc(-c2ccc(F)cc2)cc1-c1ccn(C)n1 [compound 205, N-((6-(4-fluorophenyl)-4-(1-methyl-1H-pyrazol-3-yl)pyridin-3-yl)methyl)acrylamide]	< 1000	< 1000	< 1000	–	–	–
C=CC(=O)N1CCC(c2ccc(-c3ccc(F)cc3)cc2-c2ccn(C(F)F)n2)C1 (stereo not drawn) [Cpd. No. 261, 1-(3-(3-(1-(difluoromethyl)-1H-pyrazol-3-yl)-4′-fluoro-[1,1′-biphenyl]-4-yl)pyrrolidin-1-yl)prop-2-en-1-one]	< 1000	< 1000	–	–	–	1000 to 10000
C=CC(=O)NCc1cc(-c2ccc(F)cc2)cc(-c2ccn(C(F)F)n2)n1 [Cpd. No. 225, N-((6-(1-(difluoromethyl)-1H-pyrazol-3-yl)-4-(4-fluorophenyl)pyridin-2-yl)methyl)acrylamide]	< 1000	< 1000	1000 to 10000	–	–	–
C=CC(=O)NCc1ncc(-c2ccc(F)cc2)cc1-c1ccn(C(F)F)n1 [compound 203, N-((3-(1-(difluoromethyl)-1H-pyrazol-3-yl)-5-(4-fluorophenyl)pyridin-2-yl)methyl)acrylamide]	< 1000	< 1000	< 1000	–	–	–
C=CC(=O)NCc1ccc(-c2ccc(F)c(F)c2)cc1-c1ccn(C)n1 [compound 144, N-((3′,4′-difluoro-3-(1-methyl-1H-pyrazol-3-yl)-[1,1′-biphenyl]-4-yl)methyl)acrylamide]	< 1000	< 1000	< 1000	–	–	–
C=CC(=O)NCc1cnc(-c2ccc(F)cc2)cc1-n1ncc(C)n1 [compound 244, N-((6-(4-fluorophenyl)-4-(4-methyl-2H-1,2,3-triazol-2-yl)pyridin-3-yl)methyl)acrylamide]	< 1000	< 1000	< 1000	–	–	–
C=CC(=O)NCc1ccc(-c2ccc(F)cc2)cc1-n1ccc(C)n1 [compound 241, N-((4′-fluoro-3-(3-methyl-1H-pyrazol-1-yl)-[1,1′-biphenyl]-4-yl)methyl)acrylamide]	< 1000	< 1000	1000 to 10000	–	–	–
C=CC(=O)NCc1cc(-c2ccccc2)cc(-c2ccn(C)n2)c1 [compound 137, N-((5-(1-methyl-1H-pyrazol-3-yl)-[1,1′-biphenyl]-3-yl)methyl)acrylamide]	< 1000	< 1000	> 10000	–	–	–
